Measured values: patent US6617166B2, “Measurement of accelerated whole blood clotting time” (Prophylaxis Limited, priority 1999, dated 2003)
Where “and” joins values, the source holds several entries; their conditions need not be identical. Identical values can stand only once. Marks after values point to notes of the source that are not given here.

Tests used:
[1] = system: recalcified citrated whole blood; test: Accelerated whole blood clotting time (AWBCT), recalcified citrated whole blood (RCCWB); assay type: cell-based
Protocol: Comparison of the results using native blood and citrated blood was made. 9 parts of citrated blood was added to 1 part calcium n chloride 133 mM, mixed and aliquotes of the recalcified citrated blood added to the wells of the coagulometer containing duplicates of saline control and dilutions of collagen. A concentration of […] calcium chloride is considered to be optimal; but concentrations in the range of, for example, 110-140 mM may be used. However, it should be noted that the length and un-reliability of coagulation times increase with concentrations further from the optimum, especially with higher values.
(§1) Whilst native blood is tested immediately after collection, for example, within two minutes, citrated blood may be stored for a longer period, before being recalcified immediately before the test is conducted. The interval between blood collection and testing may be on the order of one hour. It should be noted that shorter collection intervals give more reliable results.
(§2) The test is performed on native freshly drawn venous blood, or recalcified citrated blood or heparinised blood.
(§3) 100 μL of saline control or a range of concentration of a platelet agonists are added to the wells of a coagulometer and then 200 μL of native or RCCWB whole blood added and the coagulation time recorded. The potential agonists are; collagen, ADP, adrenalin, platelet activating factor, thrombin. It is anticipated that the agonist appropriate for specific roles will emerge in the course of clinical studies.
(§4) Numbers are the time to coagulation in seconds. The results given are the averages of duplicates, unless otherwise indicated by an asterix, (corresponding to single coagulation times where spurious results have not been averaged).

native whole blood = test: Accelerated whole blood clotting time (AWBCT), native blood; assay type: cell-based
Protocol: as §1, §2, §3, §4

Nc1ncnc2c1ncn2[C@@H]1O[C@H](COP(=O)(O)OP(=O)(O)O)[C@@H](O)[C@H]1O [ADP, adenosine diphosphate]
time to coagulation (AWBCT) ([1]; recalcified whole blood, ADP 12.5 μM, collection interval +65 mins): 329 s
time to coagulation (AWBCT) ([1]; recalcified whole blood, ADP 25 μM, collection interval +65 mins): 358 s
time to coagulation (AWBCT) ([1]; recalcified whole blood, ADP 50 μM, collection interval +65 mins): 348 s
time to coagulation (AWBCT) ([1]; recalcified whole blood, ADP 100 μM, collection interval +65 mins): 341 s
time to coagulation (AWBCT) (native whole blood; ADP 6.25 μM): 265 s
time to coagulation (AWBCT) (native whole blood; ADP 12.5 μM): 269 s
time to coagulation (AWBCT) (native whole blood; ADP 25 μM): 272 s
time to coagulation (AWBCT) (native whole blood; ADP 50 μM): 255 s

CC(=O)Oc1ccccc1C(=O)O [Aspirin]
time to coagulation (AWBCT) ([1]; RCCWB, aspirin 40 μg/ml, collagen 0.125 mg/ml, collection interval +135 min): 275 s
time to coagulation (AWBCT) ([1]; RCCWB, aspirin 40 μg/ml, collagen 0.25 mg/ml, collection interval +135 min): 274 s
time to coagulation (AWBCT) ([1]; RCCWB, aspirin 40 μg/ml, collagen 0.5 mg/ml, collection interval +135 min): 216 s
time to coagulation (AWBCT) ([1]; RCCWB, aspirin 40 μg/ml, collagen 1.0 mg/ml, collection interval +135 min): 184 s
time to coagulation (AWBCT) ([1]; RCCWB, aspirin 40 μg/ml, saline, collection interval +135 min): 500 s
time to coagulation (AWBCT) ([1]; RCCWB, aspirin 80 μg/ml, collagen 0.125 mg/ml, collection interval +106 min): 224 s
time to coagulation (AWBCT) ([1]; RCCWB, aspirin 80 μg/ml, collagen 0.25 mg/ml, collection interval +106 min): 236 s
time to coagulation (AWBCT) ([1]; RCCWB, aspirin 80 μg/ml, collagen 0.5 mg/ml, collection interval +106 min): 218* seconds
time to coagulation (AWBCT) ([1]; RCCWB, aspirin 80 μg/ml, collagen 1.0 mg/ml, collection interval +106 min): 212 s
time to coagulation (AWBCT) ([1]; RCCWB, aspirin 80 μg/ml, saline, collection interval +106 min): 468 s

Heparin
time to coagulation (AWBCT) ([1]; RCCWB + Heparin 1.25 u/ml, collagen 0.125 mg/ml): 325* seconds
time to coagulation (AWBCT) ([1]; RCCWB + Heparin 1.25 u/ml, collagen 0.25 mg/ml): 302 s
time to coagulation (AWBCT) ([1]; RCCWB + Heparin 1.25 u/ml, collagen 0.5 mg/ml): 71 s
time to coagulation (AWBCT) ([1]; RCCWB + Heparin 1.25 u/ml, collagen 1.0 mg/ml): 54 s
time to coagulation (AWBCT) ([1]; RCCWB + Heparin 1.25 u/ml, saline): 500+ seconds
time to coagulation (AWBCT) ([1]; RCCWB + Heparin 2.5 u/ml, collagen 0.125 mg/ml): 340 s
time to coagulation (AWBCT) ([1]; RCCWB + Heparin 2.5 u/ml, collagen 0.25 mg/ml): 405 s
time to coagulation (AWBCT) ([1]; RCCWB + Heparin 2.5 u/ml, collagen 0.5 mg/ml): 61 s
time to coagulation (AWBCT) ([1]; RCCWB + Heparin 2.5 u/ml, collagen 1.0 mg/ml): 41 s
time to coagulation (AWBCT) ([1]; RCCWB + Heparin 2.5 u/ml, saline): 600+ seconds
time to coagulation (AWBCT) ([1]; RCCWB, Heparin 5.0 u/ml, collagen 0.125 mg/ml): 600+ seconds
time to coagulation (AWBCT) ([1]; RCCWB, Heparin 5.0 u/ml, collagen 0.25 mg/ml): 600+ seconds
time to coagulation (AWBCT) ([1]; RCCWB, Heparin 5.0 u/ml, collagen 0.5 mg/ml): 48 s
time to coagulation (AWBCT) ([1]; RCCWB, Heparin 5.0 u/ml, collagen 1.0 mg/ml): 31 s
time to coagulation (AWBCT) ([1]; RCCWB, Heparin 5.0 u/ml, saline): 600+ seconds
time to coagulation (AWBCT) ([1]; RCCWB, Heparin 10 u/ml, collagen 0.125 mg/ml): 600+ seconds
time to coagulation (AWBCT) ([1]; RCCWB, Heparin 10 u/ml, collagen 0.25 mg/ml): 600+ seconds
time to coagulation (AWBCT) ([1]; RCCWB, Heparin 10 u/ml, collagen 0.5 mg/ml): 34 s
time to coagulation (AWBCT) ([1]; RCCWB, Heparin 10 u/ml, collagen 1.0 mg/ml): 27 s
time to coagulation (AWBCT) ([1]; RCCWB, Heparin 10 u/ml, saline): 600+ seconds

Low Molecular Weight Heparin [LMWH]
time to coagulation (AWBCT) (native whole blood; LMWH 0.25 u/ml, collagen 0.125 mg/ml): 233 s
time to coagulation (AWBCT) (native whole blood; LMWH 0.25 u/ml, collagen 0.25 mg/ml): 224 s
time to coagulation (AWBCT) (native whole blood; LMWH 0.25 u/ml, collagen 0.5 mg/ml): 204* seconds
time to coagulation (AWBCT) (native whole blood; LMWH 0.25 u/ml, collagen 1.0 mg/ml): 64 s
time to coagulation (AWBCT) (native whole blood; LMWH 0.25 u/ml, saline): 500+ seconds
time to coagulation (AWBCT) (native whole blood; LMWH 0.5 u/ml, collagen 0.125 mg/ml): 226 s
time to coagulation (AWBCT) (native whole blood; LMWH 0.5 u/ml, collagen 0.25 mg/ml): 228 s
time to coagulation (AWBCT) (native whole blood; LMWH 0.5 u/ml, collagen 0.5 mg/ml): 41 s
time to coagulation (AWBCT) (native whole blood; LMWH 0.5 u/ml, collagen 1.0 mg/ml): 46 s
time to coagulation (AWBCT) (native whole blood; LMWH 0.5 u/ml, saline): 500+ seconds
time to coagulation (AWBCT) (native whole blood; LMWH 1.0 u/ml, collagen 0.125 mg/ml): 318 s
time to coagulation (AWBCT) (native whole blood; LMWH 1.0 u/ml, collagen 0.25 mg/ml): 259 s
time to coagulation (AWBCT) (native whole blood; LMWH 1.0 u/ml, collagen 0.5 mg/ml): 48* seconds
time to coagulation (AWBCT) (native whole blood; LMWH 1.0 u/ml, collagen 1.0 mg/ml): 27* seconds
time to coagulation (AWBCT) (native whole blood; LMWH 1.0 u/ml, saline): 500+ seconds
time to coagulation (AWBCT) (native whole blood; LMWH 2.0 u/ml, collagen 0.125 mg/ml): 500+ seconds
time to coagulation (AWBCT) (native whole blood; LMWH 2.0 u/ml, collagen 0.25 mg/ml): 500+ seconds
time to coagulation (AWBCT) (native whole blood; LMWH 2.0 u/ml, collagen 0.5 mg/ml): 500+ seconds
time to coagulation (AWBCT) (native whole blood; LMWH 2.0 u/ml, collagen 1.0 mg/ml): 295 s
time to coagulation (AWBCT) (native whole blood; LMWH 2.0 u/ml, saline): 500+ seconds

collagen
time to coagulation (AWBCT) ([1]; RCCWB 50 mins later, collagen 0.125 mg/ml): 190 s
time to coagulation (AWBCT) ([1]; RCCWB 50 mins later, collagen 0.25 mg/ml): 184 s
time to coagulation (AWBCT) ([1]; RCCWB 50 mins later, collagen 0.5 mg/ml): 181 s
time to coagulation (AWBCT) ([1]; RCCWB 50 mins later, collagen 1.0 mg/ml): 55 s
time to coagulation (AWBCT) ([1]; RCCWB 75 mins later, collagen 0.125 mg/ml): 202 s
time to coagulation (AWBCT) ([1]; RCCWB 75 mins later, collagen 0.25 mg/ml): 209 s
time to coagulation (AWBCT) ([1]; RCCWB 75 mins later, collagen 0.5 mg/ml): 70 s
time to coagulation (AWBCT) ([1]; RCCWB 75 mins later, collagen 1.0 mg/ml): 50 s
time to coagulation (AWBCT) ([1]; RCCWB, collagen 0.125 mg/ml): 166 s and 159 s and 177 s and 178 s
time to coagulation (AWBCT) ([1]; RCCWB, collagen 0.25 mg/ml): 185 seconds and 151 seconds and 165 seconds and 161* seconds
time to coagulation (AWBCT) ([1]; RCCWB, collagen 1.0 mg/ml): 44 s and 49 s and 39 s and 56 s
time to coagulation (AWBCT) (native whole blood; collagen 0.125 mg/ml): 178 s and 134 s and 140 s and 149 s
time to coagulation (AWBCT) (native whole blood; collagen 0.25 mg/ml): 162 s and 111 s and 125 s and 137 s
time to coagulation (AWBCT) (native whole blood; collagen 1.0 mg/ml): 34 seconds and 28* seconds and 24 seconds and 29 seconds
